Data: PubChem BioAssay (NCI)
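Where inhibition never reached the appropriate level, the endpoint shown equals the highest concentration tested. Otherwise, values were interpolated linearly from a five-concentration, 48-hour dose response in 96-well plates. GI50 = concentration required for 50% inhibition of growth. TGI denotes the concentration required for complete inhibition of growth.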

Legend:
Assay in all cases: inhibition of tumour cell growth, NCI panel, 48 h
[1] = system: M19-MEL melanoma
[2] = system: EKVX NSCLC
[3] = system: SR leukemia
[4] = system: SK-MEL-28 melanoma
[5] = system: HCT-15 colon
[6] = system: UO-31 renal
[7] = system: DMS 114 small cell lung
[8] = system: RPMI-8226 leukemia
[9] = system: IGROV1 ovarian
[10] = system: LOX IMVI melanoma

`O=c1[nH]c(-c2ccccc2)nc2ccc(Cl)cc12` gave a TGI [1] of over 100 µM, a TGI [2] of over 100 µM and a TGI [3] of over 100 µM. The TGI [4] was over 100 µM, the TGI [5] was over 100 µM and the TGI [6] was over 100 µM. For the same compound, the TGI [7] was over 100 µM and the TGI [8] was over 100 µM.

`CS(=O)(=O)N(CCC#N)c1ccc(/C=N/NC(=O)CC(=O)Nc2cccc(Cl)c2)cc1` was tested, and the TGI [1] was over 100 µM, the TGI [2] was over 100 µM and the TGI [4] was over 100 µM. For the same compound, the TGI [5] was over 100 µM, the TGI [6] was over 100 µM and the TGI [9] was over 100 µM. It also gave a TGI [7] of over 100 µM, a TGI [10] of over 100 µM and a TGI [8] of over 100 µM.

`Cn1ccnc1C(c1nccn1C)C(C)(C)[N+](=O)[O-]` showed a TGI [1] of over 100 µM, a TGI [2] of over 100 µM and a TGI [3] of over 100 µM. The TGI [4] was over 100 µM, the TGI [5] was over 100 µM and the TGI [7] was over 100 µM. The TGI [10] was over 100 µM and the TGI [8] was over 100 µM.

Compound `Cc1ccc(C(=O)O/N=C2/CCCCC2CN(C)C)cc1` (stereo not given) has a TGI [1] of over 100 µM, a TGI [2] of over 100 µM and a TGI [3] of over 100 µM. For the same compound, the TGI [4] was over 100 µM, the TGI [5] was over 100 µM and the TGI [6] was over 100 µM. For the same compound, the TGI [9] was over 100 µM, the TGI [7] was over 100 µM and the TGI [10] was over 100 µM. It also gave a TGI [8] of over 100 µM.

`O=C1O[C@H](C(Cl)(Cl)Cl)N2CCCC12` (stereo not given in full) gave a TGI [1] of over 100 µM, a TGI [2] of over 100 µM and a TGI [4] of over 100 µM. The TGI [5] was over 100 µM, the TGI [6] was over 100 µM and the TGI [9] was over 100 µM. It also gave a TGI [7] of over 100 µM, a TGI [10] of over 100 µM and a TGI [8] of over 100 µM.

Compound `COc1ccccc1/C=C1\CCC(CNc2ccc(Cl)cc2)C1=O` (stereo not given) has a TGI [1] of 33.1 µM, a TGI [2] of 20.2 µM and a TGI [3] of 26.5 µM. For the same compound, the TGI [4] was 26.4 µM, the TGI [5] was 7.31 µM and the TGI [6] was 16.1 µM. For the same compound, the TGI [9] was 22.8 µM, the TGI [7] was 22.5 µM and the TGI [10] was 9.22 µM. For the same compound, the TGI [8] was 6.72 µM.

For `CNS(=O)(=O)NN(C)S(=O)(=O)c1ccc(Cl)cc1`, the TGI [1] was over 100 µM, the TGI [2] was over 100 µM and the TGI [3] was over 100 µM. The TGI [5] was over 100 µM, the TGI [6] was over 100 µM and the TGI [9] was over 100 µM. For the same compound, the TGI [7] was over 100 µM, the TGI [10] was over 100 µM and the TGI [8] was over 100 µM.

With `Oc1ccc2occ3c2c1CCC3` the TGI [1] was over 100 µM, the TGI [2] was over 100 µM and the TGI [4] was over 100 µM. For the same compound, the TGI [5] was over 100 µM, the TGI [9] was over 100 µM and the TGI [7] was over 100 µM. It also gave a TGI [10] of over 100 µM and a TGI [8] of over 100 µM.

For `CC1CCC2(NC1)OC1CC3[C@@H]4CC=C5C=CCC[C@]5(C)C4CC[C@]3(C)C1C2C` (stereo not given in full), the TGI [1] was over 100 µM, the TGI [2] was 55.5 µM and the TGI [4] was 30 µM. The TGI [5] was 48.8 µM, the TGI [6] was 68.7 µM and the TGI [9] was over 100 µM. It also gave a TGI [7] of 46.8 µM, a TGI [10] of 33.6 µM and a TGI [8] of 46 µM.

For `COc1cc(N=Nc2ccccc2)cc(/C=N\[N-]C(N)=S)c1[O-].COc1cc(N=Nc2ccccc2)cc(/C=N\[N-]C(N)=S)c1[O-].[Fe+4]`, the GI50 [1] was 16.8 µM, the TGI [1] was 75.9 µM and the GI50 [2] was over 100 µM. It also gave a TGI [2] of over 100 µM, a GI50 [4] of 24.4 µM and a TGI [4] of over 100 µM. It also gave a GI50 [6] of 30.6 µM, a TGI [6] of over 100 µM and a GI50 [9] of 29.1 µM. The TGI [9] was over 100 µM, the GI50 [7] was 11.8 µM and the TGI [7] was 83.4 µM. For the same compound, the GI50 [8] was 18.2 µM and the TGI [8] was over 100 µM.

For `NC1CCCCC1N.O=C([O-])P(=O)([O-])[O-].[Na+].[Pt+4]` (stereo not given), the GI50 [1] was 85.1 µM, the TGI [1] was over 100 µM and the GI50 [2] was over 100 µM. For the same compound, the TGI [2] was over 100 µM, the GI50 [4] was over 100 µM and the TGI [4] was over 100 µM. The GI50 [6] was over 100 µM, the TGI [6] was over 100 µM and the GI50 [9] was over 100 µM. The TGI [9] was over 100 µM, the GI50 [10] was over 100 µM and the TGI [10] was over 100 µM. The GI50 [8] was 22.2 µM and the TGI [8] was over 100 µM.

`COc1ccc(S(=O)(=O)N/N=C/CN2C(=O)c3ccccc3C2=O)cc1OC` was tested, and the TGI [1] was over 100 µM, the TGI [2] was over 100 µM and the TGI [3] was over 100 µM. For the same compound, the TGI [5] was over 100 µM, the TGI [6] was over 100 µM and the TGI [9] was over 100 µM. The TGI [7] was over 100 µM, the TGI [10] was over 100 µM and the TGI [8] was over 100 µM.

Compound `O=C(O)CNS(=O)(=O)c1ccc(NC(=O)c2ccc(F)cc2)cc1` has a TGI [1] of over 100 µM, a TGI [2] of over 100 µM and a TGI [4] of over 100 µM. The TGI [5] was over 100 µM, the TGI [6] was over 100 µM and the TGI [9] was over 100 µM. It also gave a TGI [10] of over 100 µM and a TGI [8] of over 100 µM.

Compound `CC(C)COC(=O)N1N=NC2C3OC(CC3=O)C21` (stereo not given) has a TGI [1] of over 100 µM, a TGI [2] of over 100 µM and a TGI [3] of over 100 µM. For the same compound, the TGI [4] was over 100 µM, the TGI [5] was over 100 µM and the TGI [6] was over 100 µM. For the same compound, the TGI [9] was over 31.6 µM, the TGI [7] was over 100 µM and the TGI [10] was over 100 µM. The TGI [8] was over 100 µM.

For `CCN(CC)c1ccc(N=C2C=CC(=O)c3ncccc32)c(C)c1`, the TGI [1] was 22.6 µM, the TGI [2] was 30.4 µM and the TGI [3] was 6.51 µM. It also gave a TGI [4] of 24.5 µM, a TGI [5] of 10.8 µM and a TGI [6] of 30.4 µM. It also gave a TGI [9] of 21 µM, a TGI [7] of 12.9 µM and a TGI [10] of 4.39 µM. For the same compound, the TGI [8] was over 100 µM.

`CCOCC(=O)N[C@H]1CCc2cc(OC)c(OC)c(OC)c2-c2ccc(SC)c(=O)cc21` gave a TGI [1] of over 100 µM, a TGI [2] of over 100 µM and a TGI [3] of over 100 µM. It also gave a TGI [4] of over 100 µM, a TGI [5] of over 18.1 µM and a TGI [6] of over 100 µM. For the same compound, the TGI [9] was over 100 µM, the TGI [7] was under 0.01 µM and the TGI [10] was 69 µM. The TGI [8] was over 100 µM.

In the case of `CS(=O)(=O)OCCN1CCN(C(=O)c2cccc3c(Nc4ccc(S(N)(=O)=O)cc4)c4ccccc4nc23)CC1`, the TGI [1] is reported as over 100 µM, the TGI [2] is reported as over 100 µM and the TGI [3] is reported as over 100 µM. It also gave a TGI [4] of over 100 µM, a TGI [5] of over 60.6 µM and a TGI [6] of over 100 µM. For the same compound, the TGI [9] was over 100 µM, the TGI [7] was over 57.6 µM and the TGI [10] was over 59.1 µM. It also gave a TGI [8] of over 66.1 µM.
